Assay results reported in patent US20140039803A1, “Method for Rapid Identification of Drug Targets and Drug Mechanisms of Action in Human Cells” (THE ROCKEFELLER UNIVERSITY, priority 2011, published 2014).
Where “and” joins values, the source holds several entries; their conditions need not be identical. Equal values may be shown once. Read-outs that look alike come from different tables or passages of the source.

Legend:
HCT-116 cells = test: Spindle phenotype with BI-2536 treatment; format: cell-based, human
[1] = test system: BI-2536-resistant clones of HCT-116 cells; test: Spindle phenotype with BI-2536 treatment; format: cell-based, human
HCT-116 cells (parental) = test: Cell proliferation assay (WST1), LD50; format: cell-based, human
PLK3 = PLK3 (Homo sapiens, UniProt Q9H4B4); details: cited from earlier work
Sequence of PLK3 (Q9H4B4 whole entry): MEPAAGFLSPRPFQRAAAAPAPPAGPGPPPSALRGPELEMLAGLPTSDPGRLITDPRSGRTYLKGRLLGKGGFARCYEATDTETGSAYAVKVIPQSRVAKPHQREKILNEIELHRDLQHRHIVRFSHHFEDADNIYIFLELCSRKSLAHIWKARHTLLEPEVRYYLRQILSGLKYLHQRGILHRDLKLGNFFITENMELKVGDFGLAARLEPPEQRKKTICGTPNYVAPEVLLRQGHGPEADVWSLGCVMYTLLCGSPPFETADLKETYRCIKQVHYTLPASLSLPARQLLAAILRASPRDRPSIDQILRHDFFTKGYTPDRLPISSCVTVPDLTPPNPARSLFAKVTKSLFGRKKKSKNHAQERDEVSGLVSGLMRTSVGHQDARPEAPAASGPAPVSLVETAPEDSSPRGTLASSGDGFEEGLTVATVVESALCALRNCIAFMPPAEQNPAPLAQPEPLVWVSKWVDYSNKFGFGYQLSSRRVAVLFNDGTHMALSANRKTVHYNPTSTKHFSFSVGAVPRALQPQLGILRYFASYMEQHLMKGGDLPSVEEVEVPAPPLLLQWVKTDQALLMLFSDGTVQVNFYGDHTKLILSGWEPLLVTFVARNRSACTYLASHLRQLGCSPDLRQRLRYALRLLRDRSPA

[2] = test system: BI-2536-resistant clones of HCT-116 cells; test: Cell proliferation assay (WST1), LD50; format: cell-based, human
PLK2 = PLK2 (Homo sapiens, UniProt Q9NYY3); details: cited from earlier work
Sequence of PLK2 (Q9NYY3 whole entry, species assumed): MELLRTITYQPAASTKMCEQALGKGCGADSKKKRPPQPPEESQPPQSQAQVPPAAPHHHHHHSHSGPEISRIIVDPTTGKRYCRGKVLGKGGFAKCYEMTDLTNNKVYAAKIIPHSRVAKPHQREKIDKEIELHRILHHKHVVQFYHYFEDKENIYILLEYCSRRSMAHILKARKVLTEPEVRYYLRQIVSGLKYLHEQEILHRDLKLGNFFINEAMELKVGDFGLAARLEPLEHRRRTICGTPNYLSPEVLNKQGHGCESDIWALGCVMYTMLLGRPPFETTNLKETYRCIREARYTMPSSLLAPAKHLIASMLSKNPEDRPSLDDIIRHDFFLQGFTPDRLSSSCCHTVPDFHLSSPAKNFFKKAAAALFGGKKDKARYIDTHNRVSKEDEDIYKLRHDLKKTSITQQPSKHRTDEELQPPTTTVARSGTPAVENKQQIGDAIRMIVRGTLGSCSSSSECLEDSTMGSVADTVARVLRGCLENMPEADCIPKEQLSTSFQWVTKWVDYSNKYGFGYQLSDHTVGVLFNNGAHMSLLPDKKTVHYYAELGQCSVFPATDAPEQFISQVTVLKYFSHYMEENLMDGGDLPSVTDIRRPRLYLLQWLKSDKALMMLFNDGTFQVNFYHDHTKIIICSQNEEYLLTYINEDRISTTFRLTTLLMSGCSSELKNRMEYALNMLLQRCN

related motor proteins = details: in vitro; cited from earlier work
[3] = test system: hTERT-RPE1 cells stably expressing GFP-PSMB5 wild type or mutants; test: Proliferation assay, bortezomib treatment; format: cell-based, human; details: stable expression of GFP-tagged PSMB5 mutants
[4] = test system: bortezomib-resistant clones of HCT-116 cells; details: for LD50: Table 4, mean ± s.e.m., n = 3

Question: Which normal bipolar spindles (HCT-116 cells) does the source give for `CC[C@@H]1C(=O)N(C)c2cnc(Nc3ccc(C(=O)NC4CCN(C)CC4)cc3OC)nc2N1C1CCCC1` [BI-2536] here?
Answer: Its normal bipolar spindles is 11±3%.

Question: And the bipolar spindles ([1]; BI-2536 treatment, drug-resistant clone B)?
Answer: The bipolar spindles was 46±4%.

Question: What about the “reduction in bipolar spindles associated with BI-2536 treatment” value ([1]; Example 1: clones A, B and C) of the same compound?
Answer: The value was “suppressed”.

Question: And the LD50 (HCT-116 cells (parental); Example 1, Table 1, parental HCT-116, mean ± s.d.)?
Answer: Its LD50 is 3.9 nM and 3.9 ± 1.0 nM.

Question: What about the LD50 (HCT-116 cells (parental); Example 2, Table 3, parental HCT-116, n = 3, mean ± s.d.) of the same compound?
Answer: The LD50 was 3.9 nM and 3.9 ± 2.8 nM.

Question: And the activity in vitro (PLK3)?
Answer: Its activity in vitro is “active”.

Question: And the LD50 ([2]; Example 1, Table 1, clone A, mean ± s.d.)?
Answer: Its LD50 is 24.7 ± 5.9 nM.

Question: And the LD50 ([2]; Example 1, Table 1, clone B, mean ± s.d.)?
Answer: Its LD50 is 22.9 ± 5.3 nM.

Question: What about the LD50 ([2]; Example 1, Table 1, clone C, mean ± s.d.) of the same compound?
Answer: Its LD50 is 12.6 ± 2.6 nM.

Question: And the LD50 ([2]; Example 1, Table 1, clone D, mean ± s.d.)?
Answer: The LD50 was 27.6 ± 2.4 nM.

Question: And the LD50 ([2]; Example 1, Table 1, clone E, mean ± s.d.)?
Answer: Its LD50 is 35.9 ± 9.9 nM.

Question: And the LD50 ([2]; Example 1, Table 1, clone F, mean ± s.d.)?
Answer: Its LD50 is 33.4 ± 7.5 nM.

Question: What about the LD50 ([2]; Example 2, Table 3, clone A, n = 3, mean ± s.d.) of the same compound?
Answer: The LD50 was 34.9 ± 13.0 nM.

Question: And the LD50 ([2]; Example 2, Table 3, clone B, n = 3, mean ± s.d.)?
Answer: The LD50 was 33.5 ± 2.6 nM.

Question: What about the LD50 ([2]; Example 2, Table 3, clone C, n = 3, mean ± s.d.) of the same compound?
Answer: The LD50 was 27.2 ± 8.6 nM.

Question: And the LD50 ([2]; Example 2, Table 3, clone D, n = 3, mean ± s.d.)?
Answer: Its LD50 is 14.2 ± 7.8 nM.

Question: And the LD50 ([2]; Example 2, Table 3, clone E, n = 3, mean ± s.d.)?
Answer: Its LD50 is 21.1 ± 5.7 nM.

Question: And the LD50 ([2]; Example 2, Table 3, clone F, n = 3, mean ± s.d.)?
Answer: Its LD50 is 27.5 ± 13.3 nM.

Question: And the activity in vitro (PLK2)?
Answer: The activity in vitro was “active”.

Question: Which “selectivity over related motor proteins” value (related motor proteins) does the source give for `c1ccc(C2(c3nc(-c4ccncc4)cs3)CC2)cc1` [PCTP, 4-(2-(1-phenylcyclopropyl)thiazol-4-yl)pyridine] here?
Answer: Its value is “inhibit other related motor proteins”.

Question: Which “selectivity over related motor proteins” value (related motor proteins) does the source give for `N[C@@H](CSC(c1ccccc1)(c1ccccc1)c1ccccc1)C(=O)O` [STLC, S-trityl-L-cysteine] here?
Answer: The value was “selective”.

Question: For `CC(C)C[C@H](NC(=O)[C@H](Cc1ccccc1)NC(=O)c1cnccn1)B(O)O` [bortezomib], which “effect of expression of PSMB5 M104V or A108T on bortezomib sensitivity” value [3] is on record?
Answer: The value was “suppressed bortezomib sensitivity”.

Question: What about the LD50 (HCT-116 cells (parental); Example 3, Table 4, parental HCT-116, mean ± s.e.m., n = 3) of the same compound?
Answer: Its LD50 is 6.3 ± 0.9 nM.

Question: What about the LD50 (HCT-116 cells (parental); HCT-116 cells, text of Example 3) of the same compound?
Answer: Its LD50 is 6.3±0.9 nm.

Question: And the LD50 ([4]; clone A)?
Answer: The LD50 was 19.4 ± 6.7 nM.

Question: And the LD50 ([4]; clone B)?
Answer: The LD50 was 15.3 ± 6.2 nM.

Question: And the LD50 ([4]; clone C)?
Answer: The LD50 was 17.8 ± 6.0 nM.

Question: What about the LD50 ([4]; clone D) of the same compound?
Answer: Its LD50 is 17.2 ± 5.4 nM.

Question: And the LD50 ([4]; clone E)?
Answer: The LD50 was 41.5 ± 9.5 nM.

Question: And the “LD50 of resistant clones relative to parental cell line” value ([4]; five clones with reduced bortezomib sensitivity, fold higher)?
Answer: Its value is 2.4-6.5 fold.

Question: Which results are given for `CC(=O)O[C@H]1C(=O)[C@@]2(C)[C@H]([C@H](OC(=O)c3ccccc3)[C@]3(O)C[C@H](OC(=O)[C@H](O)[C@@H](NC(=O)c4ccccc4)c4ccccc4)C(C)=C1C3(C)C)[C@]1(OC(C)=O)CO[C@@H]1C[C@@H]2O` [taxol]?
Answer: sensitivity of clones compared with parental cell line ([2]; Example 1: clones A, B and C): less sensitive than the parental cell line; sensitivity of clones compared with parental cell line ([2]; Example 2: clones D, E and F, 20 nM (FIG. 11)): less sensitive than the parental cell line
